Data on 20 compounds can be found in patent publication US10246453B2, “Benzenesulfonamide compounds and their use as therapeutic agents” (Xenon Pharmaceuticals Inc., priority 2016, dated 2019).

Counter-ions that a name gives are not always drawn. Like-named read-outs stand apart in the source and are kept apart here.

The target in one data set is NaV1.6 (Homo sapiens (Human), UniProt Q9UQD0). The data set is described as follows: Sodium Influx Assay (Flux), NaV1.6.
In a further data set the target is NaV1.5 (Homo sapiens (Human), UniProt Q14524). The data set is described as follows: Sodium Influx Assay (Flux), NaV1.5. Conditions: read-out: Flux NaV1.5 IC50; Trex HEK293 cells, ANG2 dye; arithmetic mean.
Another data set concerns the target NaV1.1 (Homo sapiens (Human), UniProt P35498). The data set is described as follows: Sodium Influx Assay (Flux), NaV1.1. It is filed as cell-based. Conditions: Trex HEK293 cells, ANG2 dye; arithmetic mean.
The mark [1] stands for this setting: read-out: Flux NaV1.6 IC50, Trex HEK293 cells, ANG2 dye, arithmetic mean.

Sequence of NaV1.5 (Q14524 other isoform, or with tags, fused parts or gaps): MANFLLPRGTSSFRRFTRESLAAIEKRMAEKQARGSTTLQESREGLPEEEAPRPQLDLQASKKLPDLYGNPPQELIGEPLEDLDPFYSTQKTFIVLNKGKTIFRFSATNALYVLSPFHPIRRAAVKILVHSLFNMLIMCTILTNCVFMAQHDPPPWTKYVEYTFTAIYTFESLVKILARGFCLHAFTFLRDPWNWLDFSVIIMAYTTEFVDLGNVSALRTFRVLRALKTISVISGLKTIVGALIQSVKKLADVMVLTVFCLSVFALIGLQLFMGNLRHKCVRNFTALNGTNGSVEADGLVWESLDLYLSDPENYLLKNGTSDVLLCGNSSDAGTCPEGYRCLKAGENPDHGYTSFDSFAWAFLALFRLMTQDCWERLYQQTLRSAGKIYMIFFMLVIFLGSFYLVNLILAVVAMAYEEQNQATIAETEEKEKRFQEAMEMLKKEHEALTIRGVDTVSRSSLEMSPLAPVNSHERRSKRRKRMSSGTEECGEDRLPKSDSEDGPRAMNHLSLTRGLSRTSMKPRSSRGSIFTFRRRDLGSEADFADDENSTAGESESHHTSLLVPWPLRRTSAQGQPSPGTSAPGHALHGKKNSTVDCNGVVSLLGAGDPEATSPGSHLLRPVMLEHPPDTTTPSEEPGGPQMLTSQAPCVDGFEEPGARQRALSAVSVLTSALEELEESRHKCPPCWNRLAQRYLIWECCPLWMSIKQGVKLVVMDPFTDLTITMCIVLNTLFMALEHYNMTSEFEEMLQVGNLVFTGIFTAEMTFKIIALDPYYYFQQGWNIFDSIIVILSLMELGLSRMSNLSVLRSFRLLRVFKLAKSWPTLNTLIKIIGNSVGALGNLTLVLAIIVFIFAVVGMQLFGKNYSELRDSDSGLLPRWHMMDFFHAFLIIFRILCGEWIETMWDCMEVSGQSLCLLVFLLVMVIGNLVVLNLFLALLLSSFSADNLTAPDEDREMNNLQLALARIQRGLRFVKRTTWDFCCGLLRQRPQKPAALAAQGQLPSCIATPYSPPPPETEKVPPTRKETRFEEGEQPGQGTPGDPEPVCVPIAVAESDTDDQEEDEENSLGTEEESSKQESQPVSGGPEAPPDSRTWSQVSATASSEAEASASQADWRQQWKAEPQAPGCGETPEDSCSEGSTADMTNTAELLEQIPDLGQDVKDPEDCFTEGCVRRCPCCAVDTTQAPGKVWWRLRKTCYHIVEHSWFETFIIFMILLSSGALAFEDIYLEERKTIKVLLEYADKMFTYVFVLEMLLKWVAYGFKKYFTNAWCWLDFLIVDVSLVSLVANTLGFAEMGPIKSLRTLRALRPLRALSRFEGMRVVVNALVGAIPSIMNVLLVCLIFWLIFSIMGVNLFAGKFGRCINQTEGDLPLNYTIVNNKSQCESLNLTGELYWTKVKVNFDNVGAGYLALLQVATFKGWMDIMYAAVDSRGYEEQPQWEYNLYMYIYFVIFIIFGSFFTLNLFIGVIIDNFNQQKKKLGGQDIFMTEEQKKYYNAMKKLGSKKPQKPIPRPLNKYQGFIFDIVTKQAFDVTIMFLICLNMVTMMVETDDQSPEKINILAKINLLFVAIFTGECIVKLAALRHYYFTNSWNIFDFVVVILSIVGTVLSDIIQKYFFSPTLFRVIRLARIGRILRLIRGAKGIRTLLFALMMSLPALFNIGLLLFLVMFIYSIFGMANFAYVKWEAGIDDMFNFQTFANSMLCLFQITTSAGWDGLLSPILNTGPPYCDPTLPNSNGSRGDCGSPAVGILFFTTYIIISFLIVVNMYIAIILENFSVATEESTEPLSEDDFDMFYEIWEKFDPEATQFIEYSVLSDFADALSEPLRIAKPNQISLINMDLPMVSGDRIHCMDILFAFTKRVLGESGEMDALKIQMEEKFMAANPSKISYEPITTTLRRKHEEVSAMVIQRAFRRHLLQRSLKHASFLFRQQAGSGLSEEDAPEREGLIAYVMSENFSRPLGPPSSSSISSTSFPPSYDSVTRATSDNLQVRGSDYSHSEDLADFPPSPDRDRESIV

One may read the IC50 as the concentration that gives 50% inhibition. With `C[C@@H]1CN(Cc2ccccc2F)CC[C@@H]1Oc1ccc(S(=O)(=O)Nc2nccs2)cc1Cl` (relative stereo) [Example 10A, 3-chloro-4-((cis-1-(2-fluorobenzyl)-3-methylpiperidin-4-yl)oxy)-N-(thiazol-2-yl)benzenesulfonamide], the IC50 against NaV1.6 was 1.27 µM.

In the case of `CC(c1ccccc1)N1CCC(Oc2ccc(S(=O)(=O)Nc3nccs3)cc2Cl)CC1` (centres unmarked) [Example 52, 3-chloro-4-((1-(1-phenylethyl)piperidin-4-yl)oxy)-N-(thiazol-2-yl)benzenesulfonamide], the IC50 at NaV1.6 (setting [1]) stood at 0.305 µM; at NaV1.5, 14.4 µM.

`CC1(Oc2ccc(S(=O)(=O)Nc3nccs3)cc2Cl)CCN(Cc2cccc(C(F)F)c2)CC1` [Example 21, 3-chloro-4-((1-(3-(difluoromethyl)benzyl)-4-methylpiperidin-4-yl)oxy)-N-(thiazol-2-yl)benzenesulfonamide]: the IC50 on NaV1.6 (setting [1]) turned out to be 3.18 µM; against NaV1.1 it was 3.15 µM; at NaV1.5, 4.69 µM.

In the case of `CN(c1cc(F)c(S(=O)(=O)Nc2cscn2)cc1Cl)[C@H]1CCN(Cc2cc(Cl)ccc2F)C1` [Example 195, (S)-5-chloro-4-((1-(5-chloro-2-fluorobenzyl)pyrrolidin-3-yl)(methyl)amino)-2-fluoro-N-(thiazol-4-yl)benzenesulfonamide], the IC50 came out at 1.49 µM at NaV1.6 (setting [1]), 5.1 µM against NaV1.1 and 3.78 µM on NaV1.5.

With `O=S(=O)(Nc1cscn1)c1ccc(OC2CCN(C3(c4ccccc4)CC3)CC2)c(Cl)c1` [Example 303, 3-chloro-4-((1-(1-phenylcyclopropyl)piperidin-4-yl)oxy)-N-(thiazol-4-yl)benzenesulfonamide], the IC50 at NaV1.6 (setting [1]) turned out to be 2.44 µM; at NaV1.1 it was 7.06 µM; at NaV1.5 it was 4.62 µM.

For `Cc1ccc(CN2CC[C@H](N(C)c3cc(F)c(S(=O)(=O)Nc4cscn4)cc3Cl)C2)o1` [Example 204, (S)-5-chloro-2-fluoro-4-(methyl(1-((5-methylfuran-2-yl)methyl)pyrrolidin-3-yl)amino)-N-(thiazol-4-yl)benzenesulfonamide], the IC50 on NaV1.6 (setting [1]) is 1.78 µM; against NaV1.1, more than 30 µM; on NaV1.5, more than 30 µM.

Consider `Cc1cc(S(=O)(=O)Nc2cscn2)c(F)cc1N(C)[C@H]1CCN([C@H]2CCc3ccccc32)C1` [Example 128, 4-(((S)-1-((S)-2,3-dihydro-1H-inden-1-yl)pyrrolidin-3-yl)(methyl)amino)-2-fluoro-5-methyl-N-(thiazol-4-yl)benzenesulfonamide], for which the IC50 at NaV1.6 (setting [1]) is 0.185 µM; against NaV1.1, more than 30 µM; on NaV1.5 it was 22.5 µM.

For the compound `CCN(c1ccc(S(=O)(=O)Nc2ncns2)cc1Cl)[C@H]1CCN(Cc2cccc(C)c2)C1` [Example 37, (S)-3-chloro-4-(ethyl(1-(3-methylbenzyl)pyrrolidin-3-yl)amino)-N-(1,2,4-thiadiazol-5-yl)benzenesulfonamide], the IC50 at NaV1.6 (setting [1]) was 0.195 µM; against NaV1.1, more than 30 µM; on NaV1.5, more than 30 µM.

As for `Cc1cc(S(=O)(=O)Nc2cscn2)c(F)cc1N(C)[C@H]1CCN(Cc2csc(C(F)(F)F)n2)C1` [Example 137, (S)-2-fluoro-5-methyl-4-(methyl(1-((2-(trifluoromethyl)thiazol-4-yl)methyl)pyrrolidin-3-yl)amino)-N-(thiazol-4-yl)benzenesulfonamide], the IC50 at NaV1.6 (setting [1]) is 0.217 µM; against NaV1.1, 5.07 µM; at NaV1.5 it was 16.5 µM.

`C=Cc1c(O[C@H]2CCN(Cc3ccccc3)C2)cc(F)c(S(=O)(=O)Nc2cscn2)c1F` [Example 275, (S)-4-((1-benzylpyrrolidin-3-yl)oxy)-2,6-difluoro-N-(thiazol-4-yl)-3-vinylbenzenesulfonamide 2,2,2-trifluoroacetate]: the IC50 came out at 0.738 µM on NaV1.6 (setting [1]), 29.7 µM against NaV1.1 and 17.6 µM at NaV1.5.

With `O=S(=O)(Nc1nccs1)c1ccc(OC2CCN(CCc3ccccc3)CC2)c(Cl)c1` [Example 234, 3-chloro-4-((1-phenethylpiperidin-4-yl)oxy)-N-(thiazol-2-yl)benzenesulfonamide], the IC50 turned out to be 1.42 µM at NaV1.6 (setting [1]), 6.87 µM at NaV1.1 and 20.7 µM at NaV1.5.

In the case of `Cc1cc(S(=O)(=O)Nc2cscn2)c(F)cc1N(C)[C@@H]1CCN(Cc2ccccc2)C1` [Example 272, (R)-4-((1-benzylpyrrolidin-3-yl)(methyl)amino)-2-fluoro-5-methyl-N-(thiazol-4-yl)benzenesulfonamide], the IC50 on NaV1.6 (setting [1]) came to 3.77 µM.

For the compound `O=S(=O)(Nc1cscn1)c1ccc(O[C@@H]2C[C@H]3CC[C@@H](C2)N3Cc2cccc(C(F)F)c2)c(Cl)c1` [Example 256, 3-chloro-4-(((1R,3s,5S)-8-(3-(difluoromethyl)benzyl)-8-azabicyclo[3.2.1]octan-3-yl)oxy)-N-(thiazol-4-yl)benzenesulfonamide], the IC50 at NaV1.5 was 6.72 µM.

Regarding `Cc1cc(S(=O)(=O)Nc2cscn2)c(F)cc1N(C)[C@H]1CCN(Cc2ccccc2O)C1` [Example 113, (S)-2-fluoro-4-((1-(2-hydroxybenzyl)-pyrrolidin-3-yl)(methyl)amino)-5-methyl-N-(thiazol-4-yl)benzenesulfonamide], the IC50 stood at 0.258 µM on NaV1.6 (setting [1]) and 17.9 µM against NaV1.1.

`COc1cccc(CN2CC[C@H](N(C)c3cc(F)c(S(=O)(=O)Nc4cscn4)cc3Cl)C2)c1` [Example 219, (S)-5-chloro-2-fluoro-4-((1-(3-methoxybenzyl)pyrrolidin-3-yl)(methyl)amino)-N-(thiazol-4-yl)benzenesulfonamide]: the IC50 at NaV1.6 (setting [1]) turned out to be 3.2 µM; against NaV1.1 it was 7.53 µM.

For the compound `O=S(=O)(Nc1cscn1)c1cc(Cl)c(OC2CCN(Cc3ccccc3)CC2)cc1F` [Example 238, 4-((1-benzylpiperidin-4-yl)oxy)-5-chloro-2-fluoro-N-(thiazol-4-yl)benzenesulfonamide 2,2,2-trifluoroacetate], the half-maximal inhibitory concentration (IC50) on NaV1.6 (setting [1]) is 2.1 µM; on NaV1.1 it was 27.8 µM.

Take `Cc1cc(S(=O)(=O)Nc2cscn2)ccc1N(C)[C@H]1CCN(Cc2ccccc2)C1` [Example 284, (S)-4-((1-benzylpyrrolidin-3-yl)(methyl)amino)-3-methyl-N-(thiazol-4-yl)benzenesulfonamide 2,2,2-trifluoroacetate]: the IC50 at NaV1.6 (setting [1]) came to 0.718 µM; on NaV1.1, 10.5 µM.

As to `Cc1cc(S(=O)(=O)Nc2cscn2)c(F)cc1N(C)[C@H]1CCN(Cc2cccc(F)c2)C1` [compound 157, (S)-2-fluoro-4-((1-(3-fluorobenzyl)pyrrolidin-3-yl)(methyl)amino)-5-methyl-N-(thiazol-4-yl)benzenesulfonamide], the IC50 was found to be 0.211 µM at NaV1.6 (setting [1]) and 18.6 µM on NaV1.5.

Regarding `C[C@H](c1ccccc1)N1CCC(Oc2ccc(S(=O)(=O)Nc3ccon3)cc2Cl)CC1` [Example 305, (R)-3-chloro-N-(isoxazol-3-yl)-4-((1-(1-phenylethyl)piperidin-4-yl)oxy)benzenesulfonamide formate], the IC50 at NaV1.5 is more than 30 µM.

As to `C[C@@H]1CN(Cc2ccccc2F)CC[C@H]1Oc1ccc(S(=O)(=O)Nc2nccs2)cc1Cl` (relative stereo) [Example 10B, 3-chloro-4-((trans-1-(2-fluorobenzyl)-3-methylpiperidin-4-yl)oxy)-N-(thiazol-2-yl)benzenesulfonamide], the IC50 on NaV1.6 amounted to 1.16 µM.
